From patent publication US20220127297A1, “Novel Antibacterial 3"-Derivatives Of 4,6-Disubstituted 2,5-Dideoxystreptamine Aminoglycoside Antibiotics” (AGILeBiotics B.V., priority 2018, published 2022)
Like-named read-outs stand apart in the source and are kept apart here.

How the values were obtained:
Test in all cases: MIC determination at University Medical Center Groningen
Assay type in all cases: cell-based
[1] = tested on: clinical isolates of Acinetobacter baumannii (and ATCC17978)
Excerpt: (§1) 3.4.3 MIC Determination at University Medical Center Groningen (the Netherlands)
(§2) Tested reference compounds. Amikacin sulfate (Cat. No. 01693, Chem-Impex), Gentamicin sulfate (Cat. No. G4918, Sigma Aldrich).
(§3) Bacterial strains/isolates. Pseudomonas aeruginosa ATCC 27853, Escherichia coli ATCC 25922, Klebsiella pneumonia ATCC43816, Acinetobacter baumannii ATCC17978, 9 clinical isolates of Klebsiella pneumonia (origin: 4 unknown, 3 urine, 1 sputum, 1 catheter tip), 7 clinical isolates of Pseudomonas aeruginosa (origin: 3 unknown, 1 wound, 1 catheter, 1 faeces, bronco alveolar liquid=BAL), 8 clinical isolates of Escherichia coli (origin: 2 bile liquid, 2 rectum, 1 throat, 2 blood culture, 1 sputum), 4 clinical isolates of Acinetobacter baumannii (origin: 2 blood culture, 1 sputum, 1 bone).
(§4) Culture media and equipment. As indicated by EUCAST guidelines (European Committee on Antimicrobial Susceptibility Testing (EUCAST); Media preparation for EUCAST disk diffusion testing and for determination of MIC values by the broth microdilution method; Version 5.0, 2017), Mueller Hinton Broth, CM0405, (Oxoid) was used for the broth micro-dilutions; and Mueller Hinton Agar, CM0337, (Oxoid) was used for the plating on agar. The testing assays were conducted in 96-well plates, with U-bottom shape (Greiner Bio-one); All bacteria strains/isolates used were handled in a Laminar flow, Clean Air (Baker). A CO2 incubator commercialized by Sanyo was used. Finally, spectrophotometer measurements were conducted using a Synergy 2 Multi-detection Microplate Reader (BioTek).
(§5) Compound preparation. The compounds were weighed and dissolved into MilliQ water. These concentrated stock aliquots were then further diluted to reach the desired testing concentrations. Serial dilutions were made in order to achieve the ten desired final concentrations for the tested compounds, that ranged between 64-0.125 μg/mL. The concentrations were calculated in respect to the 150 μL of final volume used for each of the 96-wells. Of these dilutions, 100 μL was added in each testing well of a sterile 96-well plate. All compound dilutions were plated in triplicate, while duplicates were used for the two reference antibiotics.
(§6) Inoculum preparation. The clinical isolates were revived from Luria Bertani medium storage at −80° C. by plating them overnight on MH agar plates. The following day, a few colonies were picked and inoculated in small glass bottles containing 10 mL MH broth. Growth was subsequently allowed for approx. 3 hours, at 35° C. with 250 rpm shaking, until the isolates reached late logarithmic growth phase. At this point culture solutions were prepared with an OD600 (optical density measured at 600 nm; measured using Synergy 2 Multi-detection Microplate Reader; BioTek) of 0.05. […] 50 μL of culture suspension was added to each of the wells of the 96 well plate previously loaded with the desired antibiotic/medium solution, reaching a final total volume of 150 μL per well. As controls, blanks of the MH medium and of culture were added to the 96-well plate. Plates were incubated in a plate incubator in static conditions at 35° C. for 18 hours.
(§7) MIC determination. After the incubation time, the MIC value was determined by visual inspection of bacterial growth within 96-well plates. The first column in which there was no visible growth of bacteria was determined as the MIC90 value for the compound tested in that particular row. Additionally, spectrophotometer readouts at 600 nm were recorded for each well.
(§8) MIC90. The MIC90 of a compound was assigned at which no visible growth of bacteria was determined.

[2] = tested on: clinical isolates of Escherichia coli (and ATCC 25922)
Excerpt: as §1, §2, §3, §4, §5, §6, §7, §8

[3] = tested on: clinical isolates of Klebsiella pneumonia (and ATCC43816); details: Klebsiella pneumoniae
Excerpt: as §1, §2, §3, §4, §5, §6, §7, §8

Compound: N=C(N)NC1C(O)[C@@H](CO)OC(OC2C(F)[C@H](O[C@H]3OC(CN)[C@@H](O)CC3N)C(N)C[C@H]2NC(=O)[C@@H](O)CCN)[C@@H]1O (stereo partly drawn) [ABX5006, Tobra-AHB-F-Gua]
- MIC90 ([1]; ATCC17978, A. baumannii ATCC17978 strain, broth micro-dilution (CLSI)): < 0.125 µg/mL
- MIC90 ([1]; ATCC17978, A. baumannii clinical isolate AB-2, Multidrug-resistant, origin Sputum): 0.5 to 1 µg/mL
- MIC90 ([1]; ATCC17978, A. baumannii clinical isolate AB-10, Multidrug-resistant, origin Blood culture): 0.5 to 1 µg/mL
- MIC90 ([1]; ATCC17978, A. baumannii clinical isolate AB-14, Multidrug-resistant, origin Blood culture): 0.5 to 1 µg/mL
- MIC90 ([1]; ATCC17978, A. baumannii clinical isolate AB-18, Multidrug-resistant, origin Bone): 2 to 4 µg/mL
- MIC90 ([2]; ATCC25922, E. coli ATCC25922 strain, broth micro-dilution (CLSI)): 0.5 µg/mL
- MIC90 ([2]; ATCC25922, E. coli clinical isolate EC-11, Multidrug-resistant, origin Throat): 0.5 µg/mL
- MIC90 ([2]; ATCC25922, E. coli clinical isolate EC-12, Multidrug-resistant, origin Rectum): 2 µg/mL
- MIC90 ([2]; ATCC25922, E. coli clinical isolate EC-22, Multidrug-resistant, origin Sputurn): 4 µg/mL
- MIC90 ([2]; ATCC25922, E. coli clinical isolate EC-25, Multidrug-resistant, origin Bile liquid): 4 µg/mL
- MIC90 ([2]; ATCC25922, E. coli clinical isolate EC-26, Multidrug-resistant, origin Bile liquid): 4 µg/mL
- MIC90 ([2]; ATCC25922, E. coli clinical isolate EC-40, Multidrug-resistant, origin Blood culture): 2 µg/mL
- MIC90 ([2]; ATCC25922, E. coli clinical isolate EC-43, Multidrug-resistant, origin Rectum): 4 µg/mL
- MIC90 ([2]; ATCC25922, E. coli clinical isolate EC-46, suceptible, origin Blood culture): 2 µg/mL
- MIC90 ([3]; ATCC43816, K. pneumoniae ATCC43816 strain, broth micro-dilution (CLSI), read-out: MIC 90): 0.25 µg/mL
- MIC90 ([3]; ATCC43816, K. pneumoniae clinical isolate KP-107, KPC/Pandrug-resistant, origin Urine, read-out: MIC 90): 8 µg/mL
- MIC90 ([3]; ATCC43816, K. pneumoniae clinical isolate KP-108, KPC/Pandrug-resistant, origin Urine, read-out: MIC 90): 8 µg/mL
- MIC90 ([3]; ATCC43816, K. pneumoniae clinical isolate KP-109, KPC/Pandrug-resistant, origin Catheter tip, read-out: MIC 90): 16 µg/mL
- MIC90 ([3]; ATCC43816, K. pneumoniae clinical isolate KP-110, KPC/Pandrug-resistant, origin Sputum, read-out: MIC 90): 8 µg/mL
- MIC90 ([3]; ATCC43816, K. pneumoniae clinical isolate KP-111, KPC/Pandrug-resistant, origin Urine, read-out: MIC 90): 8 µg/mL
- MIC90 ([3]; ATCC43816, K. pneumoniae clinical isolate KP-113, KPC/Pandrug-resistant, origin unkown): 4 µg/mL
